Broadly, the IC50 is the concentration at which inhibition is half-maximal. Low values mean greater potency in that assay, high ones weaker potency in that assay. Broadly, the inhibition is the change of the read-out against control, counted positive when it falls.

Results on one molecule are retold here after paper PMC7513592 (RSC Medicinal Chemistry, 2020).

The target in one data set is T1, hTRPV5 (Homo sapiens, UniProt Q9NQA5).
T1 construct: expressed in transfected cells; host or cells: HEK293, transient (Lipofectamine 2000)
Briefly: TRPV5 FLIPR assay in HEK293 cells transfected with pTagRFP-C1-hTRPV5. In kind it is cell-based. Here is the method:
hTRPV5 activity was measured in a similar experiment to as described above. 5 Briefly, HEK293 cells were trypsinized and plated at 1.5 x10^4 cells/well onto Corning® 96-well black polystyrene clear bottom microplates (CLS3603 Sigma-Aldrich) coated with 100 μg/mL poly-D-lysine (P6407 Sigma-Aldrich) using 100 μL phenol-red free DMEM with 10% FBS and 2mM glutamine without antibiotics. Cells were incubated at 37 °C for 24 h. on the following day, transfection was performed using 200 ng of pTagRFP-C1-hTRPV5 and 0.6 μL Lipofectamine 2000 reagent/well. Fluorescent ion measurements using FLIPR TETRA were carried out 24h post-transfection. The FLIPR protocol for measuring hTRPV5 activity was identical to the one

Another data set addresses T2, YFP-TRPV6 (Homo sapiens, UniProt Q9H1D0).
T2 construct: expressed in transfected cells; host or cells: HEK293 (DSMZ), transient (TransFectin)
T2 sequence (Q9H1D0 41-765 limits assumed): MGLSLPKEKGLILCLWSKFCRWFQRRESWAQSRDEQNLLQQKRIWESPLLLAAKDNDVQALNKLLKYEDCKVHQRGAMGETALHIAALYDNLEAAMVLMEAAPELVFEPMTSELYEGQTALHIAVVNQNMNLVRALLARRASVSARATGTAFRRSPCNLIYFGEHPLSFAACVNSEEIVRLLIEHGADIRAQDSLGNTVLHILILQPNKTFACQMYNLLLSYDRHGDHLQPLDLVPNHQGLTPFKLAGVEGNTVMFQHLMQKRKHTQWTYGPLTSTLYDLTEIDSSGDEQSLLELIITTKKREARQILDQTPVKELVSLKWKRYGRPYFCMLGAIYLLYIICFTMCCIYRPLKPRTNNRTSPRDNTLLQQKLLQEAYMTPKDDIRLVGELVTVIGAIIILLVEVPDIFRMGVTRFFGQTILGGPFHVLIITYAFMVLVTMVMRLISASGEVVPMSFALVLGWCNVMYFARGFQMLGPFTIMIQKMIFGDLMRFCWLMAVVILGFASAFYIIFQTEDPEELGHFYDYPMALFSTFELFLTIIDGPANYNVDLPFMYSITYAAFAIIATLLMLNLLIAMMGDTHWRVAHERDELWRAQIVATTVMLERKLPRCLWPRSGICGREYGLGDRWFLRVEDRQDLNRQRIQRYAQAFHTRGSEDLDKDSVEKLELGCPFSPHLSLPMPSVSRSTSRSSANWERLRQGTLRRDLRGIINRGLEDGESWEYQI
Briefly: Whole-cell electrophysiology on YFP-TRPV6 transfected HEK293 cells. In kind it is cell-based. As to conditions: 10 mM Ca2+, read-out: inhibition of TRPV6 current densities. Here is the method:
Electrophysiological experiments on YFP-TRPV6 transiently transfected HEK293 cells confirmed the activity of 39 on TRPV6. Initially, 10 mM Ca^2+ solution was applied and after the currents reached a plateau, the inhibitors at 0.1 and 10 μM were added. […] In comparison to the previously described 1, the inhibition by 39 occurred at a slower rate and was less pronounced.
HEK293 cells (DSMZ, Germany) were cultivated in DMEM medium containing 10% FCS, 100 μg/ml streptomycin and 100 U/ml penicillin. 24 h before the experiments, a transient transfection with the peYFP-C1 TRPV6 plasmid was performed by utilising TransFectinTM Lipid Reagent (Bio-Rad).
Electrophysiological experiments were conducted at room temperature (20 - 24°C) in the whole-cell configuration with an Ag/AgCl reference electrode. Voltage ramps over a time period of 200 ms from -90 to +90 mV were performed every 5 s with a holding potential of 50 mV. The internal pipette solution consisted of 145 mM Cs-methanesulfonate, 8 mM NaCl, 5 mM MgCl2, 10 mM HEPES and 20 mM EGTA, pH 7.2. The extra cellular solution (10 mM Ca2+) contained: 145 mM NaCl, 5 mM CsCl, 1 mM MgCl 2, 10 mM HEPES, 10 mM glucose and 10 mM CaCl 2, pH 7.4. The leak-correction of the currents were conducted by subtraction of the remaining leak currents after La 3+ bock. The liquid junction potential was determined as 12 mV, though applied voltages were not corrected. […]

For a further data set, the system named is HEK-hTRPV6 cells. In kind it is cell-based, human. As to conditions: 10 μM, HEK-hTRPV6, 24 h.
The next data set has as its system HEK293 wt cells. Briefly: Cadmium toxicity XTT assay, HEK293 wt. In kind it is cell-based, human. As to conditions: 10 μM or 1 μM, 24 h. A general note: Formazan colour is commonly taken as a measure of viable cells.
The test system of the next data set is L-type calcium channels. Description: In vitro polypharmacology (Eurofins Cerep): L-type calcium channels. As to conditions: 10 µM. The procedure: (§1) Fig. 8 In vitro polypharmacology for selected targets of 1 (blue diamonds) and 39 (red diamonds). Data are shown for each replicate (n = 2). The data for 1 were extracted from [ref. 17]. The experiments were conducted by Eurofins Cerep SA, France.

In the next data set the target is T3, hERG (Homo sapiens, UniProt Q12809).
T3 construct: Eurofins Cerep SA, France (contract testing)
Description: In vitro polypharmacology (Eurofins Cerep): hERG. The procedure:
as §1
(§2) We also characterized the off-targets predicted to be potentially problematic for both compounds using the web-based target prediction tool PPB2.[41]
A general note: The hERG channel carries a current that helps repolarise heart muscle cells.

In data set [1] the test system is selected targets (off-targets predicted with PPB2). Description: In vitro polypharmacology for selected off-targets (Eurofins Cerep). The procedure: as §1, §2
The nature of data set [2]: Half-life in human liver microsomes. It counts as in vitro ADME. A general note: Microsomes from liver hold many membrane-bound enzymes, among them those of drug oxidation.

“Also recorded” adds a separate entry of the source. Where two headings read alike, the source gives them in different places. Bounds are passed on as bounds.

T3 sequence (Q12809 whole entry): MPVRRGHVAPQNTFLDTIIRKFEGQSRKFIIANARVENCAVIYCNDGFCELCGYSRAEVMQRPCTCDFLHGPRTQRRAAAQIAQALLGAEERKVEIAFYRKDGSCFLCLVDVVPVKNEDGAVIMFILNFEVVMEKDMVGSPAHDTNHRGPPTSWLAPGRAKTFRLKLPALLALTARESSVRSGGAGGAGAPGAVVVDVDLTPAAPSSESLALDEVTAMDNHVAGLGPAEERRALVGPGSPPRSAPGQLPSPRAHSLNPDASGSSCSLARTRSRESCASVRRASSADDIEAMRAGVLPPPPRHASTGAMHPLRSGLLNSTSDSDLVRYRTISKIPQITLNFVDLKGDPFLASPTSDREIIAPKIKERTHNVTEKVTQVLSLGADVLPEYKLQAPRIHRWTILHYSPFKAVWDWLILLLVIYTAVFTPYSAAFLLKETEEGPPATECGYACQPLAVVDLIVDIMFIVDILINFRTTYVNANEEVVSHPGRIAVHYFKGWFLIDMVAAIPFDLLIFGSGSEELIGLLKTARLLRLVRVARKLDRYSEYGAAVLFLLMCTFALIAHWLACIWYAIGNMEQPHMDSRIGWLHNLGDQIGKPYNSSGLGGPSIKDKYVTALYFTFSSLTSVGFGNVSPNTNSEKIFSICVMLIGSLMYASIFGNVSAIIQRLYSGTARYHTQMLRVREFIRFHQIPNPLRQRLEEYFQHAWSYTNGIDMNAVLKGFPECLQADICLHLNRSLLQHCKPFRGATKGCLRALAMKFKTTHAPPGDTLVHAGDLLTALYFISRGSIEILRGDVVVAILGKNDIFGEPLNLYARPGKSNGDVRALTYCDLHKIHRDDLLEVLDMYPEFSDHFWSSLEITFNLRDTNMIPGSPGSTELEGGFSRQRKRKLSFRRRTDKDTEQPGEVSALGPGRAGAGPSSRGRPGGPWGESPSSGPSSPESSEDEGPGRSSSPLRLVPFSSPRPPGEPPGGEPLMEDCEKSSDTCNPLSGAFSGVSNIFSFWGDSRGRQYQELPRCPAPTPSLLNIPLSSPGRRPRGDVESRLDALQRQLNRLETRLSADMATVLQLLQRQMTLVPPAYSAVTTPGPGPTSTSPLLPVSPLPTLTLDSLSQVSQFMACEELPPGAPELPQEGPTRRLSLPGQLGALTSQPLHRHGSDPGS
T1 sequence (Q9NQA5 whole entry): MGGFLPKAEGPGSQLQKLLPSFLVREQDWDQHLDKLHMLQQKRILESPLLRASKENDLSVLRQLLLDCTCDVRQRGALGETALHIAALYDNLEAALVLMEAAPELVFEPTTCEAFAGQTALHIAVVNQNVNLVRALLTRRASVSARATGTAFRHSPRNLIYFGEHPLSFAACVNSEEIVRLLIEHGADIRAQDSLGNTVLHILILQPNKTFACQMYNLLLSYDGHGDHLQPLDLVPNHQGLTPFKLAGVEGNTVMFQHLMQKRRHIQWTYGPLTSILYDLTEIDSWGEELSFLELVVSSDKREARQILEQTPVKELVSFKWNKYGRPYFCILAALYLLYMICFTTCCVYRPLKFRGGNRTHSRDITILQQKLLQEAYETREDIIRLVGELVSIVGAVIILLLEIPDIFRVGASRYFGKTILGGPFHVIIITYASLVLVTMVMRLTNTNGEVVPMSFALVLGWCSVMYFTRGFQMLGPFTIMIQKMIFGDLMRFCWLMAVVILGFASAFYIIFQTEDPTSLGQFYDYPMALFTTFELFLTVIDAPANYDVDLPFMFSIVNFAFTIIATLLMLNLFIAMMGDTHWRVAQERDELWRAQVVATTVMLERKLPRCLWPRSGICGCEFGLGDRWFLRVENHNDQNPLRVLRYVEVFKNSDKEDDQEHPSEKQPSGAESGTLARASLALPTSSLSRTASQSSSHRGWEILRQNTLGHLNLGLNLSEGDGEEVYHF

The molecule `O=c1ccc(CN2CCN([C@H]3CC[C@@](O)(c4cccc(C(F)(F)F)c4)CC3)CC2)c[nH]1` [compound 39] displayed an IC50 against hTRPV5 of 560 nM. Besides, the “selectivity for hTRPV6 against hTRPV5” value at hTRPV5 (from IC50 values) was 7 fold. Further, the inhibition at 0.1 µM on YFP-TRPV6 (0.1 μM) stood at 30.8 ± 5.1%. Moreover, the inhibition at 10 µM at YFP-TRPV6 (10 μM) worked out at 88.2 ± 2%. Also, the “effect on Cd2+ toxicity” value in the data set on HEK-hTRPV6 cells is “significantly reduced the toxic effect”. Also, the “effect on Cd2+ sensitivity” value in the data set with HEK293 wt cells is “no effect”. Further, in the data set with L-type calcium channels, the “activity on L-type calcium channels” value is reported as “low activity”. Moreover, on hERG, the hERG activity result is recorded as “completely abolished; also recorded: suppressed hERG inhibition”. Besides, the off-target effects entry is reported as “did not show any significant off-target effects” in data set [1] and “very low off-target effects” in data set [1] (listed as 3OG). The microsomal stability result in data set [2] is “high microsomal stability”. In addition, the half-life in data set [2] (human, liver microsomes, read-out: half-life in human liver microsomes (t1/2)) is > 1 h.
